This is an account of results in patent publication US20180371408A1, “CELL CULTURES AND METHODS OF USE” (priority 2017, published 2018).

As usually defined, the IC50 is the concentration at which inhibition is half-maximal.

Like-named read-outs stand apart in the source and are kept apart here.

The test system of series [1] is Spermatogonial cells (C18-4). The experiment in a line: cells. Format: cell-based, mouse. The following applies: Mus musculus, read-out: IC50.
The subject of a further series is Leydig cells (TM3). Put plainly: cells. Type of series: cell-based, mouse. To be noted: Mus musculus, Leydig, read-out: IC50.
The next series deals with Sertoli cells (TM4). Put plainly: cells. To be noted: Mus musculus, read-out: IC50. Type of series: cell-based, mouse.
The test system of series [2] is testicular cell co-culture (C18-4, TM4, TM3). The experiment in a line: NR dye uptake assay, co-cultures treated with BPA and analogs (Example 2). Here is the method:
(§1) The testicular cell co-culture model was established as reported in Example 1 Briefly, mouse spermatogonial cell line C18-4 was established via germ cells isolated from the testes of 6 day old Balb/c mice. […] Mouse Leydig (TM3) and Sertoli (TM4) cell lines were purchased from ATCC, and these cells were isolated from prepubertal mouse gonads. C18-4 cells were maintained in DMEM composed of 5% FBS, and 100 U/ml streptomycin and penicillin in a 33° C., 5% CO2 humidified environment in a sub-confluent condition, and were passaged every 3-4 days TM3 and TM4 cells were cultured in DME/F12 composed of 1.25% FBS, 2.5% horse serum, and 100 U/ml streptomycin and penicillin at 37° C., 5% CO2 in a sub-confluent condition, and were passaged every 2-3 days. When the cells reached 70-80% confluence, a total of 1.5×10^4 cells per well were inoculated into a 96-well plate. […] The co-cultures were maintained in DMEM composed of 2.5% Nu-serum, and 100 U/ml streptomycin and penicillin in a 33° C., 5% CO2 humidified environment.
(§2) Cell viability was determined through the Neutral Red uptake assay, which is based on the ability of viable cells to incorporate NR dye into their lysosomes, while the dye is not retained if the cell dies (Repetto et al., 2008). […] The vehicle controls were set as the co-cultures treated with the vehicle (0.05% DMSO) After the treatments, the culture medium was replaced by fresh medium containing NR (50 μg/ml). After a 3 h incubation period, the co-cultures were washed with phosphate buffered saline (PBS), and the NR dye was eluted with 100 μl of a 0.5% acetic acid/50% ethanol solution. The plate was then gently shaken, and absorbance values were measured at 540 nm with a Synergy HT microplate reader (BioTek, VT). Cell viability was presented as a percentage of the mean of vehicle controls after subtracting background readings.
(§3) The data obtained from the HCS Studio·8 2.0 TargetActivation BioApplication, CellProfiler and CellProfiler Analyst were exported and further analyzed using the JMP statistical analysis package (SAS Institute, NC). To remove cell clumps, nuclei with areas larger than […] were excluded. […] For intra-plate normalization, data were normalized to the overall scaling factors, which was the mean of medians of the vehicle controls in each plate. The single cell-based data were averaged for the well-based condition. BrdU-positive cells were set by the total intensity of BrdU in the control at over 25,000 pixels. γ-H2AX positive cells were set by the total intensity of γ-H2AX in the control at over 120,000 pixels. The median lethal concentrations (LC50) were calculated using a nonlinear regression curve fit on GraphPad Prism 5 (San Diego, Calif.). To examine the correlation between the cytoskeleton and DNA damage responses in multinucleated cells, the Spearman correlation analysis was conducted between the total intensity of F-actin and γ-H2AX for 24, 48, and 72 h using cell-based data. Data were presented as mean±standard deviation (SD). Statistical significance was determined using one-way ANOVA followed by Tukey-Kramer all pairs comparison. The p-value less than 0.05 denoted a significant difference compared to the vehicle control (*).

Series [3] shares this test system. The experiment in a line: High-content image analysis of nuclear morphology and cell number. Type of series: cell-based, mouse. As for the experimental part: (§4) BrdU incorporation, cell fixation, BrdU, and DNA staining followed the previously published protocol (Liang, et al., 2017b). the determination of DNA damage responses and cytoskeleton analysis was conducted after cell fixation. The cells were then permeabilized by a 0.1% Triton X-100 in PBS, and then incubated with a mouse-anti phosphor-histone H2AX (Ser139) (γ-H2AX) overnight at 4° C. […] Finally, prior to acquiring the images, the cells were stained with Alexa Fluor 488 Phallodin for 30 minutes to stain the F-actin (Liang, et al., 2017)
(§5) Multi-channel images were then automatically acquired using an Arrayscan™ VTI HCS reader (Thermo Scientific, MA) with the HCS Studio 2.0 Target Activation BioApplication module. Forty-nine fields per well were acquired at 20× and 40× magnification using a Hamamatsu ROCA-ER digital camera in combination with a 0.63× coupler and Carl Zeiss microscope optics in auto-focus mode. Image smoothing was conducted in order to reduce object fragmentation prior to the primary object identification that takes place in the first channel. Channel one (Ch1) applied the BGRFR 386_23 for Hoechst 33342 that was used for auto-focus, object identification, and segmentation. The border objects were then excluded. Channel two (Ch2) applied applied the BGRFR 549_15, which identified the BrdU staining and BGRFR 485_20 to identify the F-actin staining. BGRFR 650_13 was applied in Channel three (Ch3) and identified the γ-H2AX staining.
(§6) Multi-Channel images were analyzed using HCS Studio™2.0 TargetActivation BioApplication. Multiple parameters of nuclei were characterized in HCA, including nuclei number, nuclear area, shape, and total DNA intensity. Nuclear shape measurements included P2A, a ratio of the nuclear perimeter squared to 4it*nucleus area (perimeter^2/4π*enuclear area) to evaluate nuclear smoothness, and LWR, a ratio of the nuclear length to width, to measure nuclear roundness. For a fairly round and smooth object, the values for P2A and LWR are around 1.0. Total intensity was defined as total pixel intensity within a cell in the respective channel. The total intensities of BrdU, γ-H2AX, and F-actin of the individual cells were also quantified. With forty-nine 20× images acquired from each well, at least 1,000 cells were analyzed per well, and single-cell based data were extracted for further analysis. The experiments were performed with at least four biological replicates and repeated twice.
(§7) Data were presented as mean±standard deviation (SD).

For series [4] the test system is unchanged. Put plainly: HCA of F-actin cytoskeleton and γ-H2AX DNA damage response. Type of series: cell-based, mouse. The following applies: for effect on F-actin cord-like structures, in words: FIG. 14A: BPA and BPS 100 μM, BPAF 5 and 15 μM, TBBPA 15 μM, 48 h; for γ-H2AX expression, in words: co-cultures, up to 100 μM; for doses inducing DNA damage response (γ-H2AX): co-culture model. As for the experimental part: as §4, §5, §6, §7

For series [5], the system named is testicular co-culture: spermatogonial cells (C18-4), Sertoli cells (TM4), Leydig cells (TM3). To be noted: co-culture; for in vitro call as reproductive toxicant: 48 h, based on cluster analysis; for effect on cell viability (NR uptake), in words: 48 h treatment, FIG. 6.
Series [6] is described as follows: NR dye uptake assay, co-cultures treated with BPA and analogs (Example 2). To be noted: mouse. As for the experimental part:
as §1, §2, §3

Turning to `O=S(=O)(c1ccc(O)cc1)c1ccc(O)cc1` [BPS, 4,4′-Sulfonyldiphenol], the half-inhibitory concentration (IC50) in series [1] (24 h) is 505 µM; in series [1] (48 h), 357 µM; in the series on Leydig cells (TM3) (24 h), 435 µM; in the series with Leydig cells (TM3) (48 h), ≥ 400 µM; with Sertoli cells (TM4) (24 h), 211 µM; in the series with Sertoli cells (TM4) (48 h), 74.3 µM. Further, the “doses significantly decreasing cell viability” value in series [2] (24 h) is ≥ 400 µM. In addition, the “doses significantly reducing cell number” value in series [3] (24 h) was 100 µM. Besides, the “doses with significant increase in nuclear area” value in series [3] (72 h) is 100 µM. Also, in series [4] (24 and 48 h), the “doses with significant increase in F-actin total intensity” value was found to be 100 µM. For the same molecule, the “effect on F-actin cord-like structures, in words” value in series [4] was “induced no notable changes”. In series [4], the “γ-H2AX expression, in words” value is “did not induce γ-H2AX expression”. In addition, the “in vitro call as reproductive toxicant” value in series [5] is on record as “positive”. The “effect on cell viability (NR uptake), in words” value in series [5] is “significant dose-dependent decrease of cell viability”.
For the molecule `Oc1ccc(C(c2ccc(O)cc2)(C(F)(F)F)C(F)(F)F)cc1` [BPAF, 4,4′-(Hexafluoroisopropylidene)diphenol], the half-inhibitory concentration (IC50) in series [1] (24 h) is 70 µM; in series [1] (48 h) it was 58.5 µM; with Leydig cells (TM3) (24 h) it was 30 µM; in the series with Leydig cells (TM3) (48 h), 20 µM; with Sertoli cells (TM4) (24 h) it was 55.4 µM; with Sertoli cells (TM4) (48 h), 22.3 µM. The CC50 at 72 h in series [6] worked out at 8.5 µM. Besides, in series [2] (24, 48, and 72 h), the “doses significantly decreasing cell viability” value was ≥ 5 µM. Besides, in series [2] (co-culture model, followed by TBBPA, BPA, and BPS), the “toxicity ranking among BPA and analogs” value is given as “highest toxicity”. The “doses reducing cell number” value in series [3] (24, 48, and 72 h) is ≥ 2.5 µM. Further, the “doses significantly increasing LWR” value in series [3] (24 and 48 h) was determined as 5 µM. Also, the “doses significantly increasing P2A” value in series [3] (24 and 48 h) is 5 µM. The “doses with significant increase in nuclear area” value in series [3] (24 h) stood at 10 µM. The “doses significantly reducing LWR (nuclear roundness)” value (“doses significantly reducing LWR” for short) in series [3] (72 h) came out at 15 µM. Besides, in series [3] (72 h), the “doses significantly reducing P2A (nuclear smoothness)” value (“doses significantly reducing P2A” for short) worked out at 15 µM. Also, in series [4], the “effect on F-actin cord-like structures, in words” value is recorded as “dramatically perturbed these structures”. Moreover, in series [4], the “doses inducing DNA damage response (γ-H2AX)” value is ≥ 5 µM. For the same molecule, the “in vitro call as reproductive toxicant” value in series [5] is given as “positive”.
As for `CC(C)(c1cc(Br)c(O)c(Br)c1)c1cc(Br)c(O)c(Br)c1` [TBBPA, 2,2′,6,6′-Tetrabromo-4,4′-isopropylidenediphenol], the IC50 came out at 74.9 µM in series [1] (24 h); 55 µM in series [1] (48 h); 70 µM with Leydig cells (TM3) (24 h); 60 µM in the series on Leydig cells (TM3) (48 h); 60 µM in the series on Sertoli cells (TM4) (24 h); 38 µM with Sertoli cells (TM4) (48 h). For the same molecule, the CC50 at 72 h in series [6] was determined as 16.8 µM. Further, in series [2] (24, 48, and 72 h), the “doses significantly decreasing cell viability” value is ≥ 25 µM. In addition, the “doses reducing cell number” value in series [3] (24, 48, and 72 h) is ≥ 10 µM. In addition, the “doses with significant increase in nuclear area” value in series [3] (24, 48, and 72 h) is 15 µM. Besides, the “doses significantly increasing P2A” value in series [3] (24 and 48 h) was 15 µM. Further, in series [3] (72 h), the “doses significantly reducing LWR” value is 15 µM. Also, in series [3] (72 h), the “doses significantly reducing P2A” value was 15 µM. Further, in series [4], the “effect on F-actin cord-like structures, in words” value was “dramatically perturbed these structures”. Further, the “doses inducing DNA damage response (γ-H2AX)” value in series [4] is 15 µM. The “in vitro call as reproductive toxicant” value in series [5] is “positive”.
Regarding `CC(C)(c1ccc(O)cc1)c1ccc(O)cc1` [BPA, 4,4′-(propane-2,2-diyl) diphenol], the IC50 in series [1] (24 h) was 190 µM; in series [1] (48 h) it was 184 µM; in the series on Leydig cells (TM3) (24 h), 88 µM; in the series on Leydig cells (TM3) (48 h), 80.5 µM; with Sertoli cells (TM4) (24 h) it was 89 µM; in the series on Sertoli cells (TM4) (48 h) it was 79 µM. Moreover, the CC50 at 72 h in series [6] was 150 µM. Further, in series [2] (24 h), the “doses significantly decreasing cell viability” value is ≥ 200 µM. In addition, the “doses with significant increase in nuclear area” value in series [3] (24, 48, and 72 h) worked out at 100 µM. Moreover, the “doses significantly reducing LWR” value in series [3] (48 and 72 h) was ≥ 25 µM; in series [3] (24 h), ≥ 50 µM. For the same molecule, in series [3] (24 h), the “doses significantly reducing P2A” value was 50 µM. The “doses significantly reducing cell number” value in series [3] (24 h) amounted to 100 µM. For the same molecule, in series [3] (24 h), the “doses with significant decrease in nuclear area” value is ≥ 10 µM. For the same molecule, in series [4] (72 h), the “doses with significant increase in F-actin total intensity” value turned out to be 100 µM. Further, in series [4], the “effect on F-actin cord-like structures, in words” value is “dramatically perturbed these structures”. The “γ-H2AX expression, in words” value in series [4] is “did not induce γ-H2AX expression”. Also, in series [5], the “effect on cell viability (NR uptake), in words” value is on record as “significant dose-dependent decrease of cell viability”.
